Measured values as given in US20140050743A1, “BINDING PROTEINS TO INHIBITORS OF COAGULATION FACTORS” (BAYER INTELLECTUAL PROPERTY GMBH, priority 2011, published 2014).

B1: HC_N31S (antibody, V domains shown)
VH: EVQLLESGGGLVQPGGSLRLSCAASGFTFSSAWMSWVRQAPGKGLEWVSYISSSGSTIYYADSVKGRFTISRDNSKNTLYLQMNSLRAEDTAVYYCAREGLWAFDYWGQGTLVTVTS
VL: QSVLTQPPSASGTPGQRVTISCTGSSSNIGAGYVVHWYQQLPGTAPKLLIYDNNKRPSGVPDRFSGSKSGTSASLAISGLRSEDEADYYCAAWDDRLNGPVFGGGTKLTVLGQ
B2: HC_A32Y (antibody, V domains shown)
VH: EVQLLESGGGLVQPGGSLRLSCAASGFTFSNYWMSWVRQAPGKGLEWVSYISSSGSTIYYADSVKGRFTISRDNSKNTLYLQMNSLRAEDTAVYYCAREGLWAFDYWGQGTLVTVTS
VL: QSVLTQPPSASGTPGQRVTISCTGSSSNIGAGYVVHWYQQLPGTAPKLLIYDNNKRPSGVPDRFSGSKSGTSASLAISGLRSEDEADYYCAAWDDRLNGPVFGGGTKLTVLGQ

Tests used:
[1] = test system: rivaroxaban (prothrombin time); experiment: Reversal of rivaroxaban's effect on prothrombin time (PT) in vitro, human plasma; assay type: biochemical
Description: (§1) Citrated blood (0.11 M Na-citrate/blood, 1:9 v/v) was obtained from human donors by venipuncture or from anesthetized Wistar rats (Charles River) by aortic cannulation and centrifuged at 4000 g for 15 minutes for separation of platelet-poor plasma. […] Antidote was added to the Plasma-rivaroxaban mixture and incubated for another 10 minutes at room temperature. The PT assay was run using Recombiplastin (Instrumentation Laboratory) as tissue factor source on an AMAX 200 automated coagulometer (Trinity Biotech) according to manufacturer's instructions. The composition of the final assay volume is ⅓ plasma and ⅔ PT reagent. […] Data are given as means±sem from 5 experiments and represent final assay concentrations (Table 8 and FIGS. 7 and 8).

[2] = test system: rivaroxaban (prothrombin time); experiment: Reversal of rivaroxaban's effect on prothrombin time (PT) in vitro, rat plasma; assay type: biochemical
Description: as §1

[3] = ELISA-based activity assay of antibody variants with a competition step (300 nM rivaroxaban); assay type: binding; parameters: key: ++: Variants with an average ratio above wt plus 2×SD (standard deviation of the ratio) were considered as improved; −: variants with a ratio below wt minus 2×SD were considered as reduced in their binding affinity; +/−: All variants with a performance in between both thresholds; −−: Variants with average fluorescence counts below the negative control (non-expressing cells) plus 3×SD were considered as non-binding; conditions: Table 11: single and double amino acid substitutions within M18-G08, variant to wt ratio, 1-3 independent experiments
Description: To determine the activity of the mutated antibody variants on compound from Example 1K an equilibrium or dissociation limited ELISA assay format was used. Briefly, MTP plates (Nunc Maxisorp black, 460518) were coated with 4 μg/ml streptavidin (Calbiochem, 189730) diluted in coating buffer (Candor Bioscience GmbH, 121500) and incubated over night at 4° C. After washing with PBST, plates were blocked with 100% Smart Block (Candor Bioscience GmbH, 113500) in PBST for 1 h at room temperature and the washing step was repeated. […] After washing 10 μM Amplex Red (Invitrogen, A12222) were added and incubated for 10 to 30 min at room temperature followed by measurement of the fluorescence signal.
Provided in table 11 are several examples of single and/or double amino acid substitutions introduced into the heavy and/or the light chain of M18-G08 (wt). Performance of the variants was analyzed in quadruples in the ELISA with a competition step and the FXa deinhibition assay (FXa DIA). In the ELISA, averages were calculated and overall performance of variants was evaluated by comparing the variant to wt ratio from 1-3 independent experiments. […] Variants with average fluorescence counts below the negative control (non-expressing cells) plus 3×SD were considered as non-binding and marked with “−−”. […] Variants not analyzed are marked with “nd” (not determined). […]

[4] = test system: rivaroxaban (FXa activity); experiment: FXa de-inhibition assay (FXa DIA) of Fab variants; assay type: biochemical; parameters: key: ++: Variants with an average ratio above wt plus 2×SD were considered as improved; −−: variants with a ratio below wt minus 2×SD were considered as either reduced in their binding affinity or non-binding; +/−: All variants with a performance in between both thresholds; conditions: Table 11: single and double amino acid substitutions within M18-G08; FXa deinhibition assay; variant/wt ratio, 2-3 independent experiments
Description: Then, 7 μl of 28 nM FXa (Haematologic Technologies Inc., HCXA-0060) diluted in assay buffer (20 mM Tris, Merck 1.08382.2500; 100 mM NaCl, Merck 1.06404.5000; 2.5 mM CaCl2*2H2O, Merck 1.02382.1000; 0.1% bovine serum albumin, Sigma A4503; 0.1% PEG 8000, Sigma P2139) were added and enzyme activity was recorded over time by measuring the fluorescence signal at 440 nm using a micro plate reader e.g. Tecan Infinite F500. The fluorescence signal was integrated over time and ratios of variant to wild-type were compared.
Provided in Table 9 are several examples of single and/or double amino acid substitutions introduced into the heavy and/or the light chain of M14-G07 (wt). Performance of the variants was analyzed in quadruples in the ELISA without a competition step and the FXa deinhibition assay (FXa DIA). In the ELISA, averages were calculated and normalized to the respective average expression level. Overall performance of variants was evaluated by comparing the variant to wt ratio from 2-3 independent experiments. […] Variants with average fluorescence counts below the negative control (non-expressing cells) plus 3×SD were considered as non-binding and marked with “−−” with none of the variants fulfilling this criteria. In the FXa deinhibition assay averages were calculated and overall performance of variants was evaluated by comparing the variant to wt ratio from 2-3 independent experiments. […]

Molecule	PT prolongation by rivaroxaban (x control) ([1]; rivaroxaban 0.17 μM)	PT prolongation by rivaroxaban (x control) ([1]; rivaroxaban 0.33 μM)	PT prolongation by rivaroxaban (x control) ([2]; rivaroxaban 0.4 μM)	PT prolongation by rivaroxaban (x control) ([2]; rivaroxaban 0.8 μM)	ELISA [3]	FXa-DIA [4]
O=C(NC[C@H]1CN(c2ccc(N3CCOCC3=O)cc2)C(=O)O1)c1ccc(Cl)s1 [Rivaroxaban, 5-Chloro-N-({(5S)-2-oxo-3-[4-(3-oxo-4-morpholinyl)phenyl]-1,3-oxazolidin-5-yl}-methyl)-2-thiophenecarboxamide, reference compound]	1.8	2.2	1.9	2.6		
B1					+/−	
B2					++	++
